Reference: US20210161857A1, “COMPOSITION AND METHOD FOR SUPPRESSING INCREASE IN BLOOD GLUCOSE LEVEL” (SUNTORY HOLDINGS LIMITED, priority 2018, published 2021)

Experiments:
[1] = high-fat diet mouse model, cited from earlier work
[2] = Glucose tolerance test after single intake of test substance; format: in vivo, Mice (C57BL/6J); settings: single oral intake 30 or 60 mg/kg, 30 min before oral glucose 1 g/kg; vs control group, at any time
Excerpt: Evaluation of Action of Isoxanthohumol to Suppress an Increase in Blood Glucose Level by Single Intake
The effect of single intake of isoxanthohumol on the increase in blood glucose level after glucose intake was examined by the following procedure.
Xanthohumol and isoxanthohumol were the standard samples (purity of 95% or higher) obtained in Preparation Example 1. The “Dosage” in the table, indicates the dosage (mg) of the test substance per kg body weight. A dosing solution containing a mixture of the test substance and a solvent was used to administer the test substance. The solvent was a 0.5 wt % sodium carboxymethylcellulose (CMC) aqueous solution. The volume of the dosing solution was 10 mL/kg A 50 wt % glucose aqueous solution was used for glucose intake.
(§1) Mice (C57BL/6J, male, 7 weeks of age, CLEA Japan, Inc.) were purchased, and they were quarantined and acclimatized for one week. […] The selected animals were divided into groups (n=9 in each group) in the group structure shown in Table, 1 by the stratified continuous randomization method based on body weight at the end of the acclimatization period.
After grouping, each group was oral administered with the test substance as described in Table 1. […] Soon after blood drawing, the blood glucose level was measured using Glutest Neo Sensor (Sanwa Kagaku Kenkyusho Co., Ltd.). […]

[3] = 10 mg/L mixed in drinking water, long-term breeding, high-fat diet mouse model; cited from earlier work
[4] = Glucose tolerance test after continuous intake (three weeks) in high-fat diet mouse model; format: in vivo, Mice (C57BL/6J); settings: high fat diet mice, oral glucose 1 g/kg, vs high fat diet group
Excerpt: Evaluation of Action of Isoxanthohumol to Suppress an Increase in Blood Glucose Level by Continuous Intake
The effect of continuous intake of isoxanthohumol on the increase in blood glucose level after glucose intake was studied by the following procedure using a high-fat diet mouse model.
In the table, “Regular diet” is control diet “D12450J” (Research Diets), and “60 kcal % High-fat diet” is very high-fat diet “D12492” (Research Diets); Xanthohumol and isoxanthohumol were the standard samples (purity of 95% or higher) obtained in Preparation Example 1. The “Dosage” in the table indicates the dosage (mg) of the test substance per day per kg body weight. As in Reference Example 1, a dosing solution containing a mixture of the test substance and a solvent (a 0.5 wt % CMC aqueous solution) was used to administer the test substance. The volume of the dosing solution was 10 ml/kg. The amount of the test substance and the volume of the solution were calculated based on the latest body weight on the administration day of the test substance. A 50 wt % glucose aqueous solution was used for glucose intake.
as §1, with “japan,” for “Japan,”, “(n=8” for “(n=9”, “Table 2” for “Table, 1”, “period. They were fed with free access to specific basic feed and water. The test substance was orally administered once a day for three weeks.” for “period.”
After fasting for six hours on the last administration day of the test substance, each group was subjected to oral glucose intake to an amount of 1 g per 1 kg body weight, and blood was drawn from the tail vein over time. Soon after blood drawing, the blood glucose level was measured using Glutest Neo Sensor (Sanwa Kagaku Kenkyusho Co., Ltd.).
Statistical processing was performed using Microsoft Office Excel 2003. A significant difference, was tested between the regular diet group and the high fat diet group by Student's t-test (significant level: 1% (p<0.01)). A significant difference was tested between the high fat diet group and each group excluding the regular diet group by Dunnett's multiple comparison test (significant level: 5% (p<0.05)).

3T3-L1 adipose cells = settings: cited from earlier work
[5] = high temperature of 100° C.; cited from earlier work
[6] = 30 mg/kg/day orally once a day for three weeks
[7] = 60 mg/kg/day orally once a day for three weeks

Row | SMILES | fasting blood glucose level ([1]; continuous administration 60 mg/kg/day) | fasting blood insulin level ([1]; continuous administration 30 or 60 mg/kg/day) | action to suppress an increase in blood glucose level [2] | blood glucose level [3] | action to suppress an increase in blood glucose level [4, 6] | action to suppress an increase in blood glucose level [4, 7] | secretion of adiponectin (3T3-L1 adipose cells) | thermal stability [5]
1 | COc1cc(O)c(CC=C(C)C)c(O)c1C(=O)/C=C/c1ccc(O)cc1 [xanthohumol] | decreases the fasting blood glucose level | decreases the fasting blood insulin level | did not show a significant action to suppress an increase in blood glucose level | decrease in blood glucose level | No significant action to suppress an increase in blood glucose level | No significant action to suppress an increase in blood glucose level | promote secretion of adiponectin | 
2 | COc1cc(O)c(CC=C(C)C)c2c1C(=O)CC(c1ccc(O)cc1)O2 (centres unmarked) [isoxanthohumol] |  |  | did not show a significant action to suppress an increase in blood glucose level |  | tendency for a suppressed increase in blood glucose level | significant action to suppress an increase in blood glucose level |  | stable
